Patent publication US20130040882A1, “USE OF FIBROBLAST GROWTH FACTOR FRAGMENTS” (NOVARTIS AG, priority 2003, published 2013)
Where two headings read alike, the source gives them in different places.

Tested on: transcript levels in tissues (GH/IGF and glucagon/insulin axes, SSTR signalling)
Format: in vivo, cynomolgus monkeys

cyclo[4-(NH2—C2H4—NH—CO—O)Pro-Phg-DTrp-Lys-Tyr(4-Bzl)-Phe] [SOM230]
Calcium/calmodulin-dependent protein kinase (CaM kinase) II β expression ↑ (fold change) (spleen): II β ↑ x2 | Calmodulin 1 (phosphorylase kinase, δ) expression ↑ (fold change) (spleen): kinase, δ) ↑ x2 | Calmodulin 2 (phosphorylase kinase, δ) expression ↑ (fold change) (spleen): kinase, δ) ↑ x1.5 | Caspase 8, apoptosis-related cysteine protease expression ↑ (fold change) (spleen): ↑ x2.5 | Cdk 2 expression ↑ (fold change) (spleen): Cdk 2 ↑ x1.5 | Cdk 5, regulatory subunit 1 (p35) expression ↑ (fold change) (spleen): 1 (p35) ↑ x2 | Cdk 6 expression ↑ (fold change) (spleen): Cdk 6 ↑ x3 | Cyclin D2 expression ↑ (fold change) (spleen): x1.5 | Cyclin I expression ↓ (fold change) (spleen): Cyclin I ↓ x1.5 | Death-associated protein expression ↑ (fold change) (spleen): protein ↑ x1.5 | Dopamine receptor D4 expression ↓ (fold change) (spleen): receptor D4 ↓ x2 | EGF (β-urogastrone) expression ↓ (fold change) (spleen): urogastrone) ↓ x2 | Follistatin-like 1 expression ↑ (fold change) (spleen): ↑ x1.5 | Gastric inhibitory polypeptide receptor expression ↑ (fold change) (spleen): ↑ x2 | Gene expression (AvgDiff): IGF-1 (spleen): 85 | Gene expression (AvgDiff): IGFBP6 (spleen): 1,043 | Gene expression (AvgDiff): SSTR2 (spleen): 93 | HGF activator inhibitor precursor expression ↑ (fold change) (spleen): x1.5 | IFN regulatory factor 2 expression ↑ (fold change) (spleen): factor 2 ↑ x3.5 | IFN-inducible RNA-dependent protein kinase expression ↑ (fold change) (spleen): ↑ x2.5 | IFNγ receptor 2 (IFNγ transducer 1) expression ↑ (fold change) (spleen): x1.5 | IFNγ responsive transcript expression ↑ (fold change) (spleen): ↑ x2 | IGF-1 expression ↑ (fold change) (spleen): IGF-1 ↑ x1.5 | IGFBP6 expression ↑ (fold change) (spleen): IGFBP6 ↑ x2.5 | IL 1 receptor-like 1 expression ↑ (fold change) (spleen): 1 ↑ x2 | IL-8 receptor type B expression ↑ (fold change) (spleen): B ↑ x1.5 | IP-4-phosphatase, type 1, isoform b expression ↑ (fold change) (spleen): ↑ x2 | K+ large conductance Ca++-activated channel, subfamily M, β member 1 expression ↑ (fold change) (spleen): ↑ x2.5 | K+ voltage-gated channel, shaker-related subfamily, member 3 expression ↓ (fold change) (spleen): member 3 ↓ x3 | LTb4 (chemokine rceptor-like 1) expression ↑ (fold change) (spleen): rceptor-like 1) ↑ x3 | Nuclear factor of activated T-cells, cytoplasmic, calcineurin-dependent 1 expression ↓ (fold change) (spleen): dependent 1 ↓ x5 | PDGF, α polypeptide expression ↑ (fold change) (spleen): polypeptide ↑ x2.5 | PDGFR, α polypeptide expression ↑ (fold change) (spleen): polypeptide ↑ x1.5 | PI-3-kinase, catalytic, α polypeptide expression ↓ (fold change) (spleen): polypeptide ↓ x2.5 | PI-3-kinase, class 2, β polypeptide expression ↑ (fold change) (spleen): ↑ x1.5 | PI-3-kinase, class 3 expression ↑ (fold change) (spleen): 3 ↑ x2 | PKC, α binding protein expression ↑ (fold change) (spleen): protein ↑ x2 | PLA2 expression ↑ (fold change) (spleen): PLA2 ↑ x2 | PTHR 1 expression ↓ (fold change) (spleen): PTHR 1 ↓ x2.5 | Phosphatidyl inositol glycan, class B expression ↑ (fold change) (spleen): B ↑ x1.5 | Programmed cell death 10 expression ↑ (fold change) (spleen): death 10 ↑ x1.5 | Putative chemokine receptor; GTP-binding protein expression ↑ (fold change) (spleen): ↑ x2.5 | Rb binding protein expression ↑ (fold change) (spleen): ↑ x2 | Rb-binding protein 8 expression ↑ (fold change) (spleen): 8 ↑ x1.5 | S-phase kinase-associated protein 1A (p19A) expression ↑ (fold change) (spleen): 1A (p19A) ↑ x2 | SSTR2 expression ↑ (fold change) (spleen): SSTR2 ↑ x2 | Solute carrier family 9 (Na+/H+ exchanger) isoform 3 regulatory factor 1 expression ↑ (fold change) (spleen): ↑ x10.5 | TGF induced protein expression ↑ (fold change) (spleen): protein ↑ x1.5 | TGFβ receptor III (betaglycan, 300 kD) expression ↓ (fold change) (spleen): ↓ x1.5 | TNF (cachectin) expression ↑ (fold change) (spleen): ↑ x2 | TNF (ligand) superfamily, member 13 expression ↑ (fold change) (spleen): member 13 ↑ x2.5 | TNFR superfamily, member 12 expression ↑ (fold change) (spleen): member 12 ↑ x1.5 | Tumour protein p53-binding protein expression ↑ (fold change) (spleen): ↑ x1.5 | VEGF expression ↑ (fold change) (spleen): VEGF ↑ x1.5 | Vasodilatator-stimulated phosphoprotein expression ↑ (fold change) (spleen): phosphoprotein ↑ x2 | β adrenergic receptor kinase 1 expression ↑ (fold change) (spleen): kinase 1 ↑ x3 | S-phase kinase-associated protein 1A expression ↑ (fold change) (spleen, second entry, without (p19A)): 1A ↑ x2 | ATPase, Ca++ transporting, cardiac muscle, fast twitch 1 expression ↓ (fold change) (thyroid): ↓ x4.5 | Adenylate cyclase activating polypeptide precursor expression ↓ (fold change) (thyroid): x1.5 | Adrenergic, α-2C-, receptor expression ↓ (fold change) (thyroid): ↓ x2.5 | Bcl-2 binding component 3 expression ↓ (fold change) (thyroid): ↓ x2 | Brain cannabinoid receptor 1 expression ↓ (fold change) (thyroid): ↓ x2 | CD2 antigen (cytoplasmic tail)-binding protein 2 expression ↑ (fold change) (thyroid): ↑ x3.5 | CD2 antigen (p50), sheep red blood cell receptor expression ↓ (fold change) (thyroid): ↓ x7.5 | COL1A1 and PDGFB fusion transcript expression ↓ (fold change) (thyroid): transcript ↓ x6 | Cadherin 13, H-cadherin (heart) expression ↑ (fold change) (thyroid): ↑ x2 | Calcium/calmodulin dependent protein kinase 1 expression ↓ (fold change) (thyroid): ↓ x2 | Calcium/calmodulin-dependent PK IV expression ↓ (fold change) (thyroid): IV ↓ x7.5 | Calmodulin-dependent PK IV (CaM-kinase IV) expression ↓ (fold change) (thyroid): IV) ↓ x7.5 | Cannabinoid receptor 2 (macrophage) expression ↑ (fold change) (thyroid): ↑ x3 | Cdc-like 5 (cholinesterase-related cell division controller) expression ↓ (fold change) (thyroid): x2 | Cdk 5, regulatory subunit 1 (p35) expression ↓ (fold change) (thyroid): subunit 1 (p35) ↓ x5 | Cdk (CDC2-like) expression ↓ (fold change) (thyroid): Cdk (CDC2-like) ↓ x9 | Chemokine (C-X-C motif), receptor 4 (fusin) expression ↓ (fold change) (thyroid): ↓ x3 | Chole-cystokinin B receptor expression ↓ (fold change) (thyroid): receptor ↓ x3 | Cyclin B2 expression ↓ (fold change) (thyroid): Cyclin B2 ↓ x2.5 | DAG 1 kinase, α (80 kD) expression ↓ (fold change) (thyroid): (80 kD) ↓ x4 | Egf-like module containing, mucin-like, hormone receptor-like sequence 1 expression ↓ (fold change) (thyroid): sequence 1 ↓ x5 | FKBP-associated protein expression ↓ (fold change) (thyroid): protein ↓ x2.5 | Flt3 ligand expression ↓ (fold change) (thyroid): Flt3 ligand ↓ x4.5 | Fms-related tyrosine kinase 1(VEGF/vascular permeability factor receptor) expression ↓ (fold change) (thyroid): ↓ x2 | GABA (A) receptor, γ2 precursor expression ↓ (fold change) (thyroid): ↓ x1.5 | GABA (B) receptor 1, isoform a precursor expression ↑ (fold change) (thyroid): ↑ x2.5 | Gastric inhibitory polypeptide 1 receptor expression ↓ (fold change) (thyroid): receptor ↓ x2 | Gene expression (AvgDiff): IGF-1 (thyroid): 58 | Glutamate receptor, metabotropic 2 precursor expression ↓ (fold change) (thyroid): precursor ↓ 3.5 | Growth arrest-specific 1 expression ↓ (fold change) (thyroid): 1 ↓ x2.5 | IFNα-inducible protein 27 expression ↑ (fold change) (thyroid): 27 ↑ x3 | IFNγ responsive transcript expression ↓ (fold change) (thyroid): ↓ x1.5 | IFNγ-inducible protein 30 expression ↑ (fold change) (thyroid): protein 30 ↑ x3.5 | IGF-1 expression ↓ (fold change) (thyroid): IGF-1 ↓ x1.5 | IL2-inducible T-cell kinase expression ↓ (fold change) (thyroid): ↓ x12 | IL9 receptor expression ↓ (fold change) (thyroid): IL9 receptor ↓ x2 | IP3 receptor type 3 expression ↓ (fold change) (thyroid): type 3 ↓ x1.5 | K+ voltage-gated channel, shaker-related subfamily, member 3 expression ↓ (fold change) (thyroid): ↓ x4.5 | LTB4 receptor (chemokine receptor-like 1) expression ↓ (fold change) (thyroid): ↓ x1.5 | Lymphocyte specific protein tyrosine kinase expression ↓ (fold change) (thyroid): ↓ x4 | P56lck expression ↓ (fold change) (thyroid): P56lck ↓ x18 | PDGF-associated Protein expression ↑ (fold change) (thyroid): Protein ↑ x2 | PDGFR α expression ↓ (fold change) (thyroid): ↓ x3 | PDGFR β expression ↑ (fold change) (thyroid): ↑ x2 | PIP 5-phosphatase type IV expression ↓ (fold change) (thyroid): type IV ↓ x3 | PLC, γ1 (formerly subtype 148) expression ↓ (fold change) (thyroid): ↓ x2 | Phosphatidyl ethanolamine N-methyltransferase expression ↑ (fold change) (thyroid): ↑ x2 | Pro-platelet basic protein (includes platelet basic protein, β-thromboglobulin, connective tissue-activating peptide III, neu) 2 expression ↑ (fold change) (thyroid): 2 ↑ x3.5 | RAG1 expression ↓ (fold change) (thyroid): RAG1 ↓ x18 | RAG2 expression ↓ (fold change) (thyroid): RAG2 ↓ x5 | RANTES expression ↑ (fold change) (thyroid): RANTES ↑ x10.5 | SH2 domain protein 1A, Duncan's disease (lymphoproliferative syndrome) expression ↓ (fold change) (thyroid): ↓ x7.5 | Signalling lymphocytic activation molecule expression ↓ (fold change) (thyroid): ↓ x4.5 | Solute carrier family 21 (PG transporter), member 2 expression ↑ (fold change) (thyroid): member 2 ↑ x2 | TCR ζ chain precursor expression ↓ (fold change) (thyroid): ↓ x5.5 | TNF (ligand) superfamily, member 10 expression ↑ (fold change) (thyroid): ↑ x2 | TSHR expression ↓ (fold change) (thyroid): TSHR ↓ x2 | Thrombospondin 2 expression ↑ (fold change) (thyroid): 2 ↑ x2 | Transcription factor 7 (T-cell specific, HMG-box) expression ↓ (fold change) (thyroid): box) ↓ x16.5 | VWF precursor expression ↑ (fold change) (thyroid): precursor ↑ x2 | c-AMP responsive element binding protein 1 expression ↓ (fold change) (thyroid): protein 1 ↓ x2 | Endothelial differentiation-related factor 1 expression, direction of change (thyroid, arrow only, factor not given): related factor 1 ↑
